Assay results reported in patent US10717749B2, “Macrocyclic sulfondiimine compounds” (BAYER PHARMA AKTIENGESELLSCHAFT, priority 2015, dated 2020).
≈ marks a conversion by molar mass, not a printed value.

Test: Thermodynamic solubility in water from powder (Method 4b)
Format: physicochemical
Conditions: phosphate buffer, aqueous buffer, thermodynamic from solid; pH 6.5, Method 4b
Protocol: 4b) Thermodynamic Solubility in Water from Powder
The thermodynamic solubility of compounds in water was determined by an equilibrium shake flask method (see for example: E. H. Kerns, L. Di: Drug-like Properties: Concepts, Structure Design and Methods, 276-286, Burlington, Mass., Academic Press, 2008). A saturated solution of the drug was prepared and the solution was mixed for 24 h to ensure that equilibrium was reached. The solution was centrifuged to remove the insoluble fraction and the concentration of the compound in solution was determined using a standard calibration curve. To prepare the sample, 2 mg solid compound was weighed in a 4 mL glass vial. 1 mL phosphate buffer pH 6.5 was added. The suspension was stirred for 24 hrs at room temperature. The solution was centrifuged afterwards. To prepare the sample for the standard calibration, 2 mg solid sample was dissolved in 30 mL acetonitrile. After sonification the solution was diluted with water to 50 mL. Sample and standards were quantified by HPLC with UV-detection. For each sample two injection volumes (5 and 50 μl) in triplicates were made. Three injection volumes (5 μl, 10 μl and 20 μl) were made for the standard. […]
The areas of sample- and standard injections as well as the calculation of the solubility value (in mg/l) were determined by using HPLC software (Waters Empower 2 FR).

solubility thermodynamic at 24 h: 58 µg/mL (≈ 126 µM)
Structure (SMILES): CS(=N)(=N)Cc1cc2cc(c1)OCCCCOc1cc(F)ccc1-c1nc(ncc1F)N2 [Example 5, 16,20-difluoro-9-[(S-methylsulfonodiimidoyl)methyl]-2,3,4,5-tetrahydro-12H-13,17-(azeno)-11,7-(metheno)-1,6,12,14-benzodioxadiazacyclononadecine]
